Laboratory results taken from ChEMBL document CHEMBL3885861, “Open TG-GATES”.

Organism: Rattus norvegicus
Assay: Open TG-GATES - Regimen: Daily Repeat
Type: toxicity, organism-based, Sprague-Dawley
Set-up: regimen Daily Repeat, gender Male, age 6 weeks
Details: in vivo, po, 10 mg/kg, route gavage, dose level Middle; for APTT / Bas / Eos / Fbg / Hb / Ht / Lym / MCH / MCHC / MCV / Mono / Neu / PT / Plat / RBC / Ret / WBC: tissue Blood; for KIDNEY_L / KIDNEY_R / KIDNEY_TOTAL: tissue Kidney; for LIVER: tissue Liver; for A/G / ALP / ALT / AST / BUN / CRE / Ca / Cl / DBIL / GLC / IP / K / LDH / Na / PL / RALB / TBIL / TC / TG / TP / gamma-GTP: tissue Plasma

Nc1c2c(nc3ccccc13)CCCC2 [TACRINE]
TERMINAL_BW (72 h, time 3 day): 217.3 g | APTT (72 h, time 3 day): 19.9 s | Bas (72 h, time 3 day): 0% | Eos (72 h, time 3 day): 1% | Fbg (72 h, time 3 day): 290 mg/dL | Hb (72 h, time 3 day): 13.5 g/dL | Ht (72 h, time 3 day): 38.4% | Lym (72 h, time 3 day): 76.8% | MCH (72 h, time 3 day): 21 pg | MCHC (72 h, time 3 day): 35.3% | MCV (72 h, time 3 day): 59.5 fL | Mono (72 h, time 3 day): 2.2% | Neu (72 h, time 3 day): 19.2% | PT (72 h, time 3 day): 15.7 s | Plat (72 h, time 3 day): 128 x10_4/uL | RBC (72 h, time 3 day): 645.4 x10_4/ul | Ret (72 h, time 3 day): 5.5% | WBC (72 h, time 3 day): 74.8 x10_2/uL | KIDNEY_L (72 h, time 3 day): 0.9 g | KIDNEY_R (72 h, time 3 day): 1 g | KIDNEY_TOTAL (72 h, time 3 day): 1.9 g | LIVER (72 h, time 3 day): 9.2 g | A/G (72 h, time 3 day): 1.2 | ALP (72 h, time 3 day): 1488.6 IU/L | ALT (72 h, time 3 day): 42.6 IU/L | AST (72 h, time 3 day): 75.4 IU/L | BUN (72 h, time 3 day): 14.4 mg/dL | CRE (72 h, time 3 day): 0.2 mg/dL | Ca (72 h, time 3 day): 10.6 mg/dL | Cl (72 h, time 3 day): 108 meq/L | DBIL (72 h, time 3 day): 0 mg/dL | GLC (72 h, time 3 day): 186.2 mg/dL | IP (72 h, time 3 day): 7.1 mg/dL | K (72 h, time 3 day): 4.4 meq/L | LDH (72 h, time 3 day): 253 IU/L | Na (72 h, time 3 day): 142 meq/L | PL (72 h, time 3 day): 153.6 mg/dL | RALB (72 h, time 3 day): 3.1 g/dL | TBIL (72 h, time 3 day): 0.014 mg/dL | TC (72 h, time 3 day): 78.6 mg/dL | TG (72 h, time 3 day): 94.4 mg/dL | TP (72 h, time 3 day): 5.7 g/dL | gamma-GTP (72 h, time 3 day): 1 IU/L | TERMINAL_BW ([…], time 7 day): 245.3 g | TERMINAL_BW ([…], time 14 day): 297.7 g | TERMINAL_BW ([…], time 28 day): 336.4 g | APTT ([…], time 7 day): 22.4 s | Bas ([…], time 7 day): 0% | Eos ([…], time 7 day): 0.6% | Fbg ([…], time 7 day): 307.4 mg/dL | Hb ([…], time 7 day): 14 g/dL | Ht ([…], time 7 day): 40.1% | Lym ([…], time 7 day): 77.4% | MCH ([…], time 7 day): 20.9 pg | MCHC ([…], time 7 day): 34.8% | MCV ([…], time 7 day): 60 fL | Mono ([…], time 7 day): 2.2% | Neu ([…], time 7 day): 18.8% | PT ([…], time 7 day): 15.8 s | Plat ([…], time 7 day): 117.3 x10_4/uL | RBC ([…], time 7 day): 668 x10_4/ul | Ret ([…], time 7 day): 5.4% | WBC ([…], time 7 day): 103.5 x10_2/uL | APTT ([…], time 14 day): 23.1 s | Bas ([…], time 14 day): 0% | Eos ([…], time 14 day): 0.8% | Fbg ([…], time 14 day): 317.6 mg/dL | Hb ([…], time 14 day): 14.7 g/dL | Ht ([…], time 14 day): 41.8% | Lym ([…], time 14 day): 84.4% | MCH ([…], time 14 day): 20.8 pg | MCHC ([…], time 14 day): 35.1% | MCV ([…], time 14 day): 59.4 fL | Mono ([…], time 14 day): 1.4% | Neu ([…], time 14 day): 12.6% | PT ([…], time 14 day): 15.5 s | Plat ([…], time 14 day): 117.2 x10_4/uL | RBC ([…], time 14 day): 704.4 x10_4/ul | Ret ([…], time 14 day): 4.3% | WBC ([…], time 14 day): 95.3 x10_2/uL | APTT ([…], time 28 day): 22.6 s | Bas ([…], time 28 day): 0% | Eos ([…], time 28 day): 1% | Fbg ([…], time 28 day): 301.8 mg/dL | Hb ([…], time 28 day): 15.1 g/dL | Ht ([…], time 28 day): 41.2% | Lym ([…], time 28 day): 79.6% | MCH ([…], time 28 day): 20.1 pg | MCHC ([…], time 28 day): 36.7% | MCV ([…], time 28 day): 54.7 fL | Mono ([…], time 28 day): 2% | Neu ([…], time 28 day): 16.6% | PT ([…], time 28 day): 16.4 s | Plat ([…], time 28 day): 93.2 x10_4/uL | RBC ([…], time 28 day): 752 x10_4/ul | Ret ([…], time 28 day): 2.9% | WBC ([…], time 28 day): 95.4 x10_2/uL | KIDNEY_L ([…], time 7 day): 1 g | KIDNEY_R ([…], time 7 day): 1.1 g | KIDNEY_TOTAL ([…], time 7 day): 2.1 g | KIDNEY_L ([…], time 14 day): 1.1 g | KIDNEY_R ([…], time 14 day): 1.2 g | KIDNEY_TOTAL ([…], time 14 day): 2.3 g | KIDNEY_L ([…], time 28 day): 1.2 g | KIDNEY_R ([…], time 28 day): 1.2 g | KIDNEY_TOTAL ([…], time 28 day): 2.4 g | LIVER ([…], time 7 day): 10.5 g | LIVER ([…], time 14 day): 12.6 g | LIVER ([…], time 28 day): 12.9 g | A/G ([…], time 7 day): 1.2 | ALP ([…], time 7 day): 1555.6 IU/L | ALT ([…], time 7 day): 42.2 IU/L | AST ([…], time 7 day): 82.8 IU/L | BUN ([…], time 7 day): 15.8 mg/dL | CRE ([…], time 7 day): 0.2 mg/dL | Ca ([…], time 7 day): 10.6 mg/dL | Cl ([…], time 7 day): 108.2 meq/L | DBIL ([…], time 7 day): 0.004 mg/dL | GLC ([…], time 7 day): 180 mg/dL | IP ([…], time 7 day): 6.8 mg/dL | K ([…], time 7 day): 4.1 meq/L | LDH ([…], time 7 day): 235.6 IU/L | Na ([…], time 7 day): 141 meq/L | PL ([…], time 7 day): 145.2 mg/dL | RALB ([…], time 7 day): 3 g/dL | TBIL ([…], time 7 day): 0.024 mg/dL | TC ([…], time 7 day): 72.2 mg/dL | TG ([…], time 7 day): 120.8 mg/dL | TP ([…], time 7 day): 5.5 g/dL | gamma-GTP ([…], time 7 day): 1 IU/L | A/G ([…], time 14 day): 1.2 | ALP ([…], time 14 day): 1291.4 IU/L | ALT ([…], time 14 day): 36.8 IU/L | AST ([…], time 14 day): 67.8 IU/L | BUN ([…], time 14 day): 18.4 mg/dL | CRE ([…], time 14 day): 0.2 mg/dL | Ca ([…], time 14 day): 10.8 mg/dL | Cl ([…], time 14 day): 108 meq/L | DBIL ([…], time 14 day): 0 mg/dL | GLC ([…], time 14 day): 185.2 mg/dL | IP ([…], time 14 day): 6.4 mg/dL | K ([…], time 14 day): 4 meq/L | LDH ([…], time 14 day): 168 IU/L | Na ([…], time 14 day): 142.6 meq/L | PL ([…], time 14 day): 152.6 mg/dL | RALB ([…], time 14 day): 3.2 g/dL | TBIL ([…], time 14 day): 0.004 mg/dL | TC ([…], time 14 day): 75 mg/dL | TG ([…], time 14 day): 136.2 mg/dL | TP ([…], time 14 day): 5.8 g/dL | gamma-GTP ([…], time 14 day): 1 IU/L | A/G ([…], time 28 day): 1.1 | ALP ([…], time 28 day): 1046.8 IU/L | ALT ([…], time 28 day): 37 IU/L | AST ([…], time 28 day): 63.4 IU/L | BUN ([…], time 28 day): 18.8 mg/dL | CRE ([…], time 28 day): 0.2 mg/dL | Ca ([…], time 28 day): 10.5 mg/dL | Cl ([…], time 28 day): 107.4 meq/L | DBIL ([…], time 28 day): 0 mg/dL | GLC ([…], time 28 day): 188.8 mg/dL | IP ([…], time 28 day): 6.7 mg/dL | K ([…], time 28 day): 4.1 meq/L | LDH ([…], time 28 day): 116 IU/L | Na ([…], time 28 day): 141.8 meq/L | PL ([…], time 28 day): 142 mg/dL | RALB ([…], time 28 day): 3.1 g/dL | TBIL ([…], time 28 day): 0.006 mg/dL | TC ([…], time 28 day): 70.4 mg/dL | TG ([…], time 28 day): 121 mg/dL | TP ([…], time 28 day): 5.9 g/dL | gamma-GTP ([…], time 28 day): 1.2 IU/L
